Results as given in PMC11062922 (Nature Chemical Biology, 2023).
Where two headings read alike, the source gives them in different places.

How the values were obtained:
ACVR1 = molecular target: T1, ACVR1 (Homo sapiens, UniProt Q04771); assay: Kinobeads competition binding: ACVR1; settings: target ACVR1;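 note: target engagement share of this target among all targets at its Kdapp concentration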
T1 construct: to maximize the representation of endogenous proteins; endogenous in cells
T1 sequence (Q04771 21-509): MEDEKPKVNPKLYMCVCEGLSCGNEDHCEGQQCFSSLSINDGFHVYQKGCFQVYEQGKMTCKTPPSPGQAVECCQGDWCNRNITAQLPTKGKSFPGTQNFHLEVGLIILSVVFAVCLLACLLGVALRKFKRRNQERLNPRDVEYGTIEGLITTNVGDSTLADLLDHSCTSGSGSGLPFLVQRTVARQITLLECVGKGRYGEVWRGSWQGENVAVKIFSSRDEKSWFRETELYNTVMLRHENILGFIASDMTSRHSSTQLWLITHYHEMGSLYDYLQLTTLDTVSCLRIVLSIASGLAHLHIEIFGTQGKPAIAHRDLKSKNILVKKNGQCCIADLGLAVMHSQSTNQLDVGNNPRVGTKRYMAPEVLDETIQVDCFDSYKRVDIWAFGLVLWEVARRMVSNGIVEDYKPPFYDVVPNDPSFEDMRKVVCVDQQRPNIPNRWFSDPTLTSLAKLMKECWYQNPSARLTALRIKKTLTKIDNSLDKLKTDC
Text: Supplement 41589_2023_1459_MOESM4_ESM.xlsx, sheet "CATDS matrix" | column: ACVR1

AP1G1 = assay: Kinobeads competition binding: AP1G1; parameters: species or system human; settings: target AP1G1
ATR = assay: Kinobeads competition binding: ATR; parameters: species or system human; settings: target ATR
BMPR1A = assay: Kinobeads competition binding: BMPR1A; parameters: species or system human; settings: target BMPR1A
CDK17 = assay: Kinobeads competition binding: CDK17; parameters: species or system human; settings: target CDK17
CSNK1D = molecular target: T2, CSNK1D (Homo sapiens, UniProt P48730); assay: Kinobeads competition binding: CSNK1D; settings: target CSNK1D
T2 construct: endogenous in cells

IRAK4 = assay: Kinobeads competition binding: IRAK4; parameters: species or system human; settings: target IRAK4
MAP3K3 = assay: Kinobeads competition binding: MAP3K3; parameters: species or system human; settings: target MAP3K3
MAP3K4 = assay: Kinobeads competition binding: MAP3K4; parameters: species or system human; settings: target MAP3K4;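 note: target engagement share of this target among all targets at its Kdapp concentration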
MAPK3 = assay: Kinobeads competition binding: MAPK3; parameters: species or system human; settings: target MAPK3
MYLK3 = assay: Kinobeads competition binding: MYLK3; parameters: species or system human; settings: target MYLK3;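 note: share of all-target engagement taken by this protein at its own Kdapp concentration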
NEK3 = assay: Kinobeads competition binding: NEK3; parameters: species or system human; settings: target NEK3
PKM = assay: Kinobeads competition binding: PKM; parameters: species or system human; settings: target PKM
PKN1 = molecular target: T3, PKN1 (Homo sapiens, UniProt Q16512); assay: Kinobeads competition binding: PKN1; settings: target PKN1;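 note: share of total target engagement due to this protein at one drug concentration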
T3 construct: a mixture of lysates from five cancer cell lines; endogenous in cells
Text: Supplement 41589_2023_1459_MOESM4_ESM.xlsx, sheet "CATDS matrix" | column: PKN1

PKN3 = PKN3 (Homo sapiens, UniProt Q6P5Z2); assay: Kinobeads two-dose competition binding: PKN3; parameters: endogenous in cells; settings: for CATDSPKN3: selectivity score from Kinobeads two-dose data
Text: Briefly, Kinobeads comprise seven broad-spectrum small molecule kinase inhibitors immobilized on Sepharose beads. […]. Compounds of interest are set to compete for target protein binding with Kinobeads in the lysate and the amount of a given protein bound to Kinobeads in the presence of a compound can be quantified relative to a dimethylsulfoxide (DMSO) vehicle control by label-free mass spectrometry. This assay measures the physical interaction of a compound with thousands of endogenous proteins in parallel and, when systematically increasing the concentration of competitor, enables the calculation of an apparent interaction constant ( Kdapp ) for each compound and protein.
Kinobeads pulldown experiments were performed as described previously[13],[14],[17] with minor modification. […] The protein concentration was adjusted to 5 mg ml^−1. Kinase inhibitors were spiked into 0.5 ml of cell lysate at final concentrations of 100 and 1,000 nM (or DMSO, 0.3, 1, 3, 10, 30, 100, 300 and 1,000 nM for full dose experiments). […] Lysates were incubated for 45 min at 4 °C. Subsequently, lysates were incubated with Kinobeads ε (17.5 µl of settled beads) for 30 min at 4 °C. To assess the degree of protein depletion from the lysates by Kinobeads, the flow through of the DMSO control was recovered for a pulldown of pulldown experiment where the lysate was incubated a second time with fresh Kinobeads. Beads were washed in three steps with buffer containing 0.4%, 0.2% and no IGEPAL. Bound proteins were reduced with 50 mM DTT in 8 M Urea, 40 mM Tris-HCl pH 7.4 for 30 min at room temperature. After alkylation with 55 mM chloroacetamide, the urea concentration was reduced to 1–2 M and proteins were digested with trypsin. Acidified peptides were desalted and concentrated using SepPak tC18 µEluation plates (Waters). Samples were frozen, dried by vacuum centrifugation and stored at −20 °C.
Each kinase inhibitor was processed together with all DMSO controls of the same plate. Additionally, each search was supplemented with five high quality DMSO controls for consistent peptide identification and protein grouping. The resultant file (proteinGroups.txt) was used for subsequent filtering, normalization, data visualization and target annotation that was automatically performed by a data processing pipeline built in house that used R (including the ‘drc’ and ‘heatmap’ packages). First, reverse hits, potential contaminants and not quantified proteins in the DMSO control samples were discarded. Protein raw and label-free quantification intensities were normalized to the median DMSO control intensity to obtain relative residual binding intensities for each protein group at every inhibitor concentration and standard deviations of the DMSO control intensity were calculated. IC50 values were estimated based on the following equation IC50=I×100−inhibition/inhibition where [I] is the inhibitor concentration that was used for IC50 calculation and ‘inhibition’ the relative residual binding intensity. […]. Estimated Kdapp values were then calculated by multiplying the estimated IC50 values with a protein-dependent correction factor that was limited to a maximum value of one. The correction factor accounts for the depletion of a target protein from the lysate by Kinobeads. The depletion can be measured by the ratio of the amount of protein captured in two consecutive pulldowns of the same DMSO control lysate. In this study, correction factors were determined in separate experiments using the same lysate mixture and the same bead batch. Correction factors were set to the median of all correction factors. Targets of kinase inhibitors were annotated using the previously published random forest classifier. A training data set was annotated manually. […]

CDK6 = molecular target: T4, CDK6 (Homo sapiens, UniProt Q00534); assay: Kinobeads competition binding: CDK6; settings: target CDK6
T4 construct: endogenous in cells

[1] = Kinobeads two-dose, read-out: Kdapp PKN3

T2 sequence (P48730 whole entry): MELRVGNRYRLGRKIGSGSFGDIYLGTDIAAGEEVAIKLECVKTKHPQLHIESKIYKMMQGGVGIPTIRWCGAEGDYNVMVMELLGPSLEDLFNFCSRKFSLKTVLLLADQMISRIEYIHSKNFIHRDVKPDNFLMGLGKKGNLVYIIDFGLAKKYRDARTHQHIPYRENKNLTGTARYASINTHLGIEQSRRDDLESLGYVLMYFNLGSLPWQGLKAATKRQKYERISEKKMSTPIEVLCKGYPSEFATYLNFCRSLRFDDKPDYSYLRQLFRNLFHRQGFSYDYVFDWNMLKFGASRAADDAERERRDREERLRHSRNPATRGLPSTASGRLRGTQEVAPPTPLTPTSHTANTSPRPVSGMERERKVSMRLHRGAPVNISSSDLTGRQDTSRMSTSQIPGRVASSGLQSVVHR
T3 sequence (Q16512 whole entry): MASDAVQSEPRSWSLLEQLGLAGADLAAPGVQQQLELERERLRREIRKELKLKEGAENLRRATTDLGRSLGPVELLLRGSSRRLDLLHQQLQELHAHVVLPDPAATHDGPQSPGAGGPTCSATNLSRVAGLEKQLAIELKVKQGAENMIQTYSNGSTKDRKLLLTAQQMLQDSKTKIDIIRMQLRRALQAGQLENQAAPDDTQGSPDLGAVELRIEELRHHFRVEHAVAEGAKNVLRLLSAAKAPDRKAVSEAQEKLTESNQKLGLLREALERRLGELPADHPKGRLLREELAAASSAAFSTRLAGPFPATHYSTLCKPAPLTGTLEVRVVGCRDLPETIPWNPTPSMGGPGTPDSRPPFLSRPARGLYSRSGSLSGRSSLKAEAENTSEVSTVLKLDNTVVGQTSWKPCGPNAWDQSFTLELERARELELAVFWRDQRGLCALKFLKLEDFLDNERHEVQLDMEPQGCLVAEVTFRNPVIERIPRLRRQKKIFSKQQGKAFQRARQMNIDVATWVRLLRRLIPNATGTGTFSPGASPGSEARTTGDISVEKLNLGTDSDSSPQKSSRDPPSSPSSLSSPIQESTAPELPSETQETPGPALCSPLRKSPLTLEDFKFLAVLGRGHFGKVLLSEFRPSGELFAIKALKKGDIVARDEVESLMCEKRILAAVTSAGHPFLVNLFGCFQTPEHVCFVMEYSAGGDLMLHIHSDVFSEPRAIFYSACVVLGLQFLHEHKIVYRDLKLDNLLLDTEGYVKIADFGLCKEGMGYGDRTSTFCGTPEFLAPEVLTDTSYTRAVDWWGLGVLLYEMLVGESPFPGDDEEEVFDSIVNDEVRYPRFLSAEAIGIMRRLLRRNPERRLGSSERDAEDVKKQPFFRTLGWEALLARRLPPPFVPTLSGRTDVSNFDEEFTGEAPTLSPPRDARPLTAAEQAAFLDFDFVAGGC
T4 sequence (Q00534 whole entry): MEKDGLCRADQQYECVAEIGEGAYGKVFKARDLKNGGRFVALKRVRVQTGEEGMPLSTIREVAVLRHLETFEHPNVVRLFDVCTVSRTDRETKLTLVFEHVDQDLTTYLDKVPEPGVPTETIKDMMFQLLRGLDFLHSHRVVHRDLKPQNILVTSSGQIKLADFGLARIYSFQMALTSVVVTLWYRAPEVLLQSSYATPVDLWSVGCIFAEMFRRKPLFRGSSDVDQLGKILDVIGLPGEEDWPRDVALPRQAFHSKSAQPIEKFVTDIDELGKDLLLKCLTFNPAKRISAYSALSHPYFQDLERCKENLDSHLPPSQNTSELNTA
Chain of PKN3 (Q6P5Z2 whole entry): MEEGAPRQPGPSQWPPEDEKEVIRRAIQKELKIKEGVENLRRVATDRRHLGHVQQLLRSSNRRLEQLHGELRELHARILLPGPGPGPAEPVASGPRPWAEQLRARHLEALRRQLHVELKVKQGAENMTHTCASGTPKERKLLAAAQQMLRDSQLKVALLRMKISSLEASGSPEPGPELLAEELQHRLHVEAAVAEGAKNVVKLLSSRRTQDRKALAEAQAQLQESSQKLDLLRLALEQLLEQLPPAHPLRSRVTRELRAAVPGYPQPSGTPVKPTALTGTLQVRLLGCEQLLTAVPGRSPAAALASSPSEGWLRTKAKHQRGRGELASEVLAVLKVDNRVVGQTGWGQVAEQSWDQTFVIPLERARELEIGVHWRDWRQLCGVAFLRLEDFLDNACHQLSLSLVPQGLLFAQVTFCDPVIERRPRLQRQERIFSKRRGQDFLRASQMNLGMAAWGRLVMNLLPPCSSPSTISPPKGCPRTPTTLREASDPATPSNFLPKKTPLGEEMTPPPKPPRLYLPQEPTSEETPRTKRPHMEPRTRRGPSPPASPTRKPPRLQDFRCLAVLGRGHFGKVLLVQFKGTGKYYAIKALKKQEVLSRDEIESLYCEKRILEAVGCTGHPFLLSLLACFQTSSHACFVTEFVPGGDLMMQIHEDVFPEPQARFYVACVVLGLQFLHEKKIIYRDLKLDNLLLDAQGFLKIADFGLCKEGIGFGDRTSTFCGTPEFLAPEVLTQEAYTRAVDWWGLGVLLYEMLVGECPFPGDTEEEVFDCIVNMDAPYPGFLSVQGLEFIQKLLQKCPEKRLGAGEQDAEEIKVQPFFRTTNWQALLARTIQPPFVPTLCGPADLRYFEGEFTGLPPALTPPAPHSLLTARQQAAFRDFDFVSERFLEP

Structure (SMILES) | CATDS (ACVR1) | CATDS (AP1G1) | CATDS (ATR) | CATDS (BMPR1A) | CATDS (CDK17) | CATDS (CSNK1D) | CATDS (IRAK4) | CATDS (MAP3K3) | CATDS (MAP3K4) | CATDS (MAPK3) | CATDS (MYLK3) | CATDS (NEK3) | CATDS (PKM) | CATDS (PKN1) | potency estimated from few doses (PKN3; [1]) | CATDSPKN3 (PKN3) | potency estimated from few doses (PKN3; read-out: Lestaurtinib Drugmatrix value, Gene Name PKN3, one column per experiment number and replicate (R1-R3)) | potency estimated from few doses (PKN3; read-out: Kdapp PKN3) | CATDS (CDK6)
CCN1CCN(Cc2ccc(Nc3ncc(F)c(-c4cc(F)c5nc(C)n(C(C)C)c5c4)n3)nc2)CC1 [Abemaciclib] | 0 | 0 | 0 | 0 | 0.02553 | 0 | 0 | 0 | 0 | 0 | 0 | 0 | 0 | 0 | – | – | – | – | –
CCn1c(-c2nonc2N)nc2c(C#CC(C)(C)O)nc(OCCN)cc21 [GSK902056A] | – | – | – | – | – | – | – | – | – | – | – | – | – | – | 1 nM | 0.93 | – | – | –
CN(C)C/C=C/C(=O)Nc1cc2c(Nc3ccc(F)c(Cl)c3)ncnc2cc1O[C@H]1CCOC1 [Afatinib] | 0 | 0 | 0 | – | – | 0 | – | – | – | – | – | – | – | 0 | – | – | – | – | –
C[C@]12O[C@H](C[C@]1(O)CO)n1c3ccccc3c3c4c(c5c6ccccc6n2c5c31)CNC4=O [Lestaurtinib] | – | – | – | – | – | – | – | – | – | – | – | – | – | – | – | – | 755 nM | – | –
CCn1c(-c2nonc2N)nc2c(C#CC(C)(C)O)nc(OCCNC)cc21 [GSK949675A] | – | – | – | – | – | – | – | – | – | – | – | – | – | – | 2.5 nM | 0.86 | – | – | –
NCc1ccc(-c2nc(-c3ccncc3)c(-c3ccc(Cl)c(O)c3)[nH]2)cc1 [SB-476429-A] | – | – | – | – | – | – | – | – | – | – | – | – | – | – | – | 0.21 | – | 36 nM | –
CCc1cc2c(cc1N1CCC(N3CCOCC3)CC1)C(C)(C)c1[nH]c3cc(C#N)ccc3c1C2=O [Alectinib] | 0 | 0 | 0 | 0 | 0 | 0 | 0 | 0 | 0 | 0 | 0 | 0 | 0 | 0 | – | – | – | – | 0
Nc1ncnc2[nH]c(-c3ccccc3)nc12 [AH5015_KCGS] | 0 | 0 | 0 | 0 | 0 | 0 | 0 | 0 | 0 | 0 | 0 | 0 | 0 | 0 | – | – | – | – | 0
N#CC1(c2ccc(NC(=O)c3cccnc3NCc3ccncc3)cc2)CCCC1 [Apatinib] | 0 | 0 | 0 | 0 | 0 | 0 | 0 | 0 | 0 | 0 | 0 | 0 | 0 | 0 | – | – | – | – | 0
